The results in this text go back to US12031897B2, “Target-locking single-molecule nanoscopy” (Memorial Sloan Kettering Cancer Center, priority 2019, dated 2024).

For assay [1], the target named is T1, Brd4 foci at the Nanog locus (Mus musculus, UniProt Q9ESU6).
T1 construct: integrating a SNAP-tag at the N-terminus of the endogenous Brd4; endogenous in cells; host or cells: mouse ESCs NMG, NMG SNAP-Brd4 clone 7 (CRISPR knock-in, homozygous)
As to the kind of experiment: Brd4 cluster signal at Nanog vs. [JQ1]. It counts as cell-based. The note with it: mESCs. As for the experimental part: It is discovered that Pol II, Sox2 and Brd4 form foci at Nanog transcription sites, with nanoscale organization akin to Pou5f1—colocalization of Pol II with 3′UTR-tagged nascent RNA and resolvable separation of enhancer-associated regulatory factors (FIGS. 9A-9D).
For real-time confocal and STED imaging, example implementations may program the wave generator to scan 2 μm×2 μm or 1 μm×1 μm xy areas in 0.8 sec or 0.2 sec respectively. 3D scanning was performed (via, e.g., detection system 150) by acquiring 5 xy scans while moving the stage by 0.5 μm in z between scans. TTL pulses corresponding to single-photon events from the APDs, together with the trigger pulses from the wave generator were detected using a field-programmable gate array (FPGA) data acquisition system (National Instruments, PCIe-7852R).
Before imaging, cells were seeded onto 8-chamber coverglass (LabTek, 155411) coated with 5 μg/ml laminin (BioLamina LN511), in −2i media (OMG) or +2i media (NMG) and appropriate drugs. For SiR staining, cells were labeled with media containing 0.3 μM SiR-BG for 10 mins, at 37° C., followed by three washes with new media.
To generate OMG or NMG SNAP-Brd4 targeted cells, OMG-1 or NMG mESCs (1×106) were transfected with 10 μg SNAP-Brd4 donor vector and 0.6 μg espCas9-gRNA-Brd4 vector. […]

The test system of assay [2] is SiR-Rpb1 (Pol II) in the nucleus of U2-OS cells. As to the kind of experiment: SiR-Rpb1 FRAP in the nucleus of clone 5 cells. It is filed as cell-based, human. The note with it: after ~30-40 minutes incubation with 10 μM Flavopiridol. The text has this: Live cell imaging experiments (SiR-Rpb1 FRAP). For SiR-Rpb1 FRAP experiments, time lapse images were acquired at 1 fps at a focal point adjusted at the mid-plane of the nucleus. To bleach molecules at a spot in the nucleus, an iris was used to block all but a small circle in the center of the excitation beam, the dynamic diffuser was removed and ˜[…] 642 nm laser power was applied for ˜10 seconds. Then, the 642 nm laser power was reduced to ˜7 W/μm2, the diffuser was put back in the optical path (resulting in additional drop in the power reaching the sample), the iris was removed and time-lapse acquisition continued. The recovery trace of SiR-Rpb1 at the bleached spot was corrected for photobleaching using the intensity of nearby (non-photobleached) regions in the nucleus.
Quantification of signal (S) and immobile background (Bi) at the transcription site. […] This behavior reflects gradual photobleaching of Pol II molecules residing within the excitation volume during the measurement and a constant background of molecules rapidly diffusing in and out. […] The Bi/Bd ratio is also consistent with: (i) Fluorescence Recovery After Photobleaching (FRAP) measurements at random nuclear locations (FIGS. 11K, 11L), showing that ˜40% of total Pol II is immobile (recovery time ˜20 min) and likely transcriptionally engaged; (ii) previous GFP-Pol II FRAP results in a related system.

Assay [3] has as its system Pol II (FLAG-SNAP-Rpb1) at the CMV mini-gene. As to the kind of experiment: ChIP-qPCR of Pol II at the CMV mini-gene after flavopiridol treatment (U2-OS cells). The note with it: 10 μM flavopiridol, by the 5-minute time point; clone 5 cells. It counts as cell-based, human. The method, then:
ChIP-qPCR analysis of Pol II after flavopiridol treatment. U2-OS cells. Fast chromatin immuno-precipitation was performed as described. Confluent 15 cm dishes (20×10^6 cells) were treated with 10 μM Flavopiridol or DMSO for the indicated times. Methanol-free formaldehyde (Thermo Fisher) was then directly added to the media to 1% v/v final concentration, and dishes were immediately placed on a rotator/shaker for 10 minutes at RT. Formaldehyde was quenched with 125 mM glycine for 5 min at RT, and cells were scraped and collected with centrifugation (2,000 g, 5 min at 4° C.) and washed twice with cold PBS. Cells were lysed in buffer IP (150 mM NaCl, 50 mM Tris-HCl pH 7.5, 5 mM EDTA, 0.5% v/v NP-40, 1.0% v/v Triton X-100) containing protease inhibitors, centrifuged (12,000 g, 1 min at 4° C.), and after one wash, the pellet was resuspended in buffer IP+protesase inhibitors. Volume equivalent to 4×10^6 cells was sonicated to shear the chromatin (Bioruptor indirect sonicator), and cleared using centrifugation (12,000 g, 10 min at 4° C.). […] Eluted chromatin was analyzed with qPCR, using primer pairs specific for different mini-gene regions (FIGS. 13I, 13J).
For orientation: Quantitative PCR measures a nucleic acid by following its amplification.

Regarding `Cc1sc2c(c1C)C(c1ccc(Cl)cc1)=N[C@@H](CC(=O)OC(C)(C)C)c1nnc(C)n1-2` [JQ1], in assay [1], the “Hill curve n, relative Brd4 signal at Nanog vs. [JQ1]” value was 1.0.
Consider `CN1CC[C@H](c2c(O)cc(O)c3c(=O)cc(-c4ccccc4Cl)oc23)[C@H](O)C1` [flavopiridol], for which, in assay [2] (~40% in absence of Flavopiridol), the “slow-recovering immobile Pol II population (FRAP)” value was 10-15%. Moreover, the “fast FRAP recovery of SiR-Rpb1” value in assay [2] (~60% in absence) is listed as 85-90%. Besides, the “Pol II ChIP signal at mini-gene body and terminator regions” value in assay [3] is “near-complete loss”.
